One test has as its target T1, human B1R receptor (Homo sapiens, UniProt P46663).
T1 construct: host or cells: CHO K1 cells (Chinese hamster ovary), stably transfected
T1 sequence (P46663 1-353): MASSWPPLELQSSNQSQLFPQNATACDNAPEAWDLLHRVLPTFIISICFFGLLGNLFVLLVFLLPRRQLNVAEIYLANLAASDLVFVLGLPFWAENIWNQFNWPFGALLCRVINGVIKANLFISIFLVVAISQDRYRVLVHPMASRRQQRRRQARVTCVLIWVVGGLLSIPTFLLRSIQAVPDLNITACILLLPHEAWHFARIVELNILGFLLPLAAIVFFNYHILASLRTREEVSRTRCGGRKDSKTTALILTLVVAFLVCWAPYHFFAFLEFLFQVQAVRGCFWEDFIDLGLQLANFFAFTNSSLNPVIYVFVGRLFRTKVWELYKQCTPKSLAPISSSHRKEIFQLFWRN
As to the kind of experiment: Functional study on the bradykinin receptor 1 (B1R), FLIPR Ca2+ assay, hB1R cells. The class given is cell-based. The settings on record: CHO-K1, test substance 10 μM, agonist Lys-Des-Arg9-bradykinin 0.5 nM, % inhibition compared with the maximum achievable inhibition, read-out: B1R Antagonism, human [10 μM] % Inhibition. In a few lines:
(§1)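 FLIPR Ca2+ read-out (Fluo-4, peak fluorescence) in stably transfected CHO K1 cells. Compounds at 10 μM, then 10 min later agonist challenge: human B1R with Lys-Des-Arg9-bradykinin 0.5 nM, rat B1R with Des-Arg9-bradykinin 100 nM; reported as % activation or % of maximal inhibition.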

For a further test, the target named is T2, B1R receptor of the rat (Rattus norvegicus, UniProt P97583).
T2 construct: host or cells: CHO K1 cells (Chinese hamster ovary), stably transfected
T2 sequence (P97583 1-337): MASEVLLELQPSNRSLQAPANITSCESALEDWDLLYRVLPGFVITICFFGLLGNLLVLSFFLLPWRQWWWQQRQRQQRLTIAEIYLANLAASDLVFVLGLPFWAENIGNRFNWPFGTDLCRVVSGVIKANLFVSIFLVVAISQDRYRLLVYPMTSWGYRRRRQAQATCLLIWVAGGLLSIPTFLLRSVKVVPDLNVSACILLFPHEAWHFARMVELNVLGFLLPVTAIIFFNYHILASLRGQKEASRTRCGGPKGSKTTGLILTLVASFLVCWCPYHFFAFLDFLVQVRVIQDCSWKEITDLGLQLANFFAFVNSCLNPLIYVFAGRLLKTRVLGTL
As to the kind of experiment: Functional study on the bradykinin receptor 1 (B1R), FLIPR Ca2+ assay, rB1R cells. The format is cell-based. To be noted: CHO-K1, test substance 10 μM, agonist Des-Arg9-bradykinin 100 nM, % inhibition compared with the maximum achievable inhibition, read-out: B1R Antagonism, rat [10 μM] % Inhibition. In short, it runs like this: as §1

As a reminder, the inhibition is the change of the read-out against control, counted positive when it falls.

Regarding `COc1cc(C)c(S(=O)(=O)N2CCCCC2COCC(=O)NCCCN2CCN(Cc3ccccc3)CC2)c(C)c1` (stereo not shown) [Example 411, N-(3-(4-benzylpiperazin-1-yl)propyl)-2-((1-(4-methoxy-2,6-dimethylphenylsulfonyl)piperidin-2-yl)methoxy)acetamide], the inhibition at 10 µM on human B1R receptor was 101%; at B1R receptor of the rat, 100%.

As for `CCN1CCN(CCCNC(=O)COCC2CCCCN2S(=O)(=O)c2c(C)cc(OC)cc2C)CC1` (stereo not shown) [Example 412, N-(3-(4-ethylpiperazin-1-yl)propyl)-2-((1-(4-methoxy-2,6-dimethylphenylsulfonyl)piperidin-2-yl)methoxy)acetamide], the inhibition at 10 µM was found to be 101% on human B1R receptor and 103% on B1R receptor of the rat.

Turning to `COc1cc(C)c(S(=O)(=O)N2CCCCC2COCC(=O)NCCCN2CCCCC2)c(C)c1` (stereo not shown) [Example 413, 2-((1-(4-methoxy-2,6-dimethylphenylsulfonyl)piperidin-2-yl)methoxy)-N-(3-(piperidin-1-yl)propyl)acetamide], the inhibition at 10 µM on human B1R receptor was 99.9%; on B1R receptor of the rat, 103%.

Turning to `COc1cc(C)c(S(=O)(=O)N2CCCCC2COCC(=O)NCC2CCN(Cc3ccccc3)C2)c(C)c1` (stereo not shown) [Example 414, N-((1-benzylpyrrolidin-3-yl)methyl)-2-((1-(4-methoxy-2,6-dimethylphenylsulfonyl)piperidin-2-yl)methoxy)acetamide], the inhibition at 10 µM at human B1R receptor stood at 101%; at B1R receptor of the rat, 100%.

As for `COc1cc(C)c(S(=O)(=O)N2CCCCC2COCC(=O)NCC2CCCN(Cc3ccccc3)C2)c(C)c1` (stereo not shown) [Example 415, N-((1-benzylpiperidin-3-yl)methyl)-2-((1-(4-methoxy-2,6-dimethylphenylsulfonyl)piperidin-2-yl)methoxy)acetamide], the inhibition at 10 µM on human B1R receptor was 99.2%; at B1R receptor of the rat, 97.5%.

As for `COc1cc(C)c(S(=O)(=O)N2CCCCC2COCC(=O)NCCn2nccc2C)c(C)c1` (stereo not shown) [Example 416, 2-((1-(4-methoxy-2,6-dimethylphenylsulfonyl)piperidin-2-yl)methoxy)-N-(2-(5-methyl-1H-pyrazol-1-yl)ethyl)acetamide], the inhibition at 10 µM on human B1R receptor stood at 50.2%; at B1R receptor of the rat, 101%.

Regarding `COc1cc(C)c(S(=O)(=O)N2CCCCC2COCC(=O)Nc2ccc(CCc3nc4ccccc4n3C)cc2)c(C)c1` (stereo not shown) [Example 417, 2-((1-(4-methoxy-2,6-dimethylphenylsulfonyl)piperidin-2-yl)methoxy)-N-(4-(2-(1-methyl-1H-benzo[d]imidazol-2-yl)ethyl)phenyl)acetamide], the results for the inhibition at 10 µM at human B1R receptor and on B1R receptor of the rat were 96.2% and 103%, respectively.

`COc1cc(C)c(S(=O)(=O)N2CCCCC2COCC(=O)Nc2cccc(CN3CCCCC3)c2)c(C)c1` (stereo not shown) [Example 418, 2-((1-(4-methoxy-2,6-dimethylphenylsulfonyl)piperidin-2-yl)methoxy)-N-(3-(piperidin-1-ylmethyl)phenyl)acetamide]: the inhibition at 10 µM amounted to 101% on human B1R receptor and 104% on B1R receptor of the rat.

In the case of `COc1cc(C)c(S(=O)(=O)N2CCCCC2COCC(=O)Nc2ccc(CN3CCCCC3)cc2)c(C)c1` (stereo not shown) [Example 419, 2-((1-(4-methoxy-2,6-dimethylphenylsulfonyl)piperidin-2-yl)methoxy)-N-(4-(piperidin-1-ylmethyl)phenyl)acetamide], the inhibition at 10 µM amounted to 100% at human B1R receptor and 101% on B1R receptor of the rat.

Take `COc1cc(C)c(S(=O)(=O)N2CCCCC2COCC(=O)Nc2ccc(Cn3ccnc3)cc2)c(C)c1` (stereo not shown) [Example 420, N-(4-((1H-imidazol-1-yl)methyl)phenyl)-2-((1-(4-methoxy-2,6-dimethylphenylsulfonyl)piperidin-2-yl)methoxy)acetamide]: the inhibition at 10 µM on human B1R receptor was determined as 100%; on B1R receptor of the rat, 92%.

On to `COc1cc(C)c(S(=O)(=O)N2CCCCC2COCC(=O)Nc2ccc(CN3CCC(C)CC3)cc2)c(C)c1` (stereo not shown) [Example 421, 2-((1-(4-methoxy-2,6-dimethylphenylsulfonyl)piperidin-2-yl)methoxy)-N-(4-((4-methylpiperidin-1-yl)methyl)phenyl)acetamide], for which the results for the inhibition at 10 µM on human B1R receptor and at B1R receptor of the rat were 97.3% and 93.4%, respectively.

With `COc1ccc(S(=O)(=O)N2c3ccccc3CC2COCC(=O)NCC2CCCN(Cc3ccccc3)C2)cc1` (stereo not shown) [Example 422, N-((1-benzylpiperidin-3-yl)methyl)-2-((1-(4-methoxyphenylsulfonyl)indolin-2-yl)methoxy)acetamide], the inhibition at 10 µM at human B1R receptor is 48%; at B1R receptor of the rat, 98.6%.

Take `COc1ccc(S(=O)(=O)N2c3ccccc3CC2COCC(=O)Nc2cccc(CN3CCCCC3)c2)cc1` (stereo not shown) [Example 423, 2-((1-(4-methoxyphenylsulfonyl)indolin-2-yl)methoxy)-N-(3-(piperidin-1-ylmethyl)phenyl)acetamide]: the inhibition at 10 µM at human B1R receptor came out at 58.7%; on B1R receptor of the rat it was 80.1%.

For the molecule `CCN(CCCNC(=O)COCC1CCCCN1S(=O)(=O)c1c(C)cc(OC)cc1C)c1ccccc1` (stereo not shown) [Example 424, N-(3-(ethyl(phenyl)amino)propyl)-2-((1-(4-methoxy-2,6-dimethylphenylsulfonyl)piperidin-2-yl)methoxy)acetamide], the figures for the inhibition at 10 µM on human B1R receptor and on B1R receptor of the rat were 35.1% and 97.6%, respectively.

Take `COc1cc(C)c(S(=O)(=O)N2CCCCC2COCC(=O)NCCc2cnccn2)c(C)c1` (stereo not shown) [Example 425, 2-((1-(4-methoxy-2,6-dimethylphenylsulfonyl)piperidin-2-yl)methoxy)-N-(2-(pyrazin-2-yl)ethyl)acetamide]: the inhibition at 10 µM was -0.97% at human B1R receptor and 98.8% at B1R receptor of the rat.

Turning to `COc1cc(C)c(S(=O)(=O)N2CCCCC2COCC(=O)NC(C)Cn2cccn2)c(C)c1` (stereo not shown) [Example 426, N-(1-(1H-pyrazol-1-yl)propan-2-yl)-2-((1-(4-methoxy-2,6-dimethylphenylsulfonyl)piperidin-2-yl)methoxy)acetamide], the inhibition at 10 µM on human B1R receptor was -4.95%; at B1R receptor of the rat, 94.4%.

For `COc1cc(C)c(S(=O)(=O)N2CCCCC2COCC(=O)Nc2ccc(-n3ccnc3C)cc2)c(C)c1` (stereo not shown) [Example 427, 2-((1-(4-methoxy-2,6-dimethylphenylsulfonyl)piperidin-2-yl)methoxy)-N-(4-(2-methyl-1H-imidazol-1-yl)phenyl)acetamide], the inhibition at 10 µM at human B1R receptor is 102%; on B1R receptor of the rat it was 98.8%.

In the case of `COc1cc(C)c(S(=O)(=O)N2CCCCC2COCC(=O)NCc2ccccc2N2CCCCC2)c(C)c1` (stereo not shown) [Example 428, 2-((1-(4-methoxy-2,6-dimethylphenylsulfonyl)piperidin-2-yl)methoxy)-N-(2-(piperidin-1-yl)benzyl)acetamide], the inhibition at 10 µM was 23.8% at human B1R receptor and 102% at B1R receptor of the rat.

Consider `COc1cc(C)c(S(=O)(=O)N2CCCCC2COCC(=O)Nc2cccc(N3CCCCC3)c2)c(C)c1` (stereo not shown) [Example 429, 2-((1-(4-methoxy-2,6-dimethylphenylsulfonyl)piperidin-2-yl)methoxy)-N-(3-(piperidin-1-yl)phenyl)acetamide], for which the inhibition at 10 µM on human B1R receptor is 14.3%; at B1R receptor of the rat, 99.5%.

`COc1cc(C)c(S(=O)(=O)N2CCCCC2COCC(=O)NCc2cccc(N3CCCCC3)c2)c(C)c1` (stereo not shown) [Example 430, 2-((1-(4-methoxy-2,6-dimethylphenylsulfonyl)piperidin-2-yl)methoxy)-N-(3-(piperidin-1-yl)benzyl)acetamide]: the inhibition at 10 µM on human B1R receptor was determined as 38.6%; at B1R receptor of the rat, 101%.

Take `COc1cc(C)c(S(=O)(=O)N2CCCCC2COCC(=O)Nc2ccccc2N2CCN(C)CC2)c(C)c1` (stereo not shown) [Example 431, 2-((1-(4-methoxy-2,6-dimethylphenylsulfonyl)piperidin-2-yl)methoxy)-N-(2-(4-methylpiperazin-1-yl)phenyl)acetamide]: the inhibition at 10 µM was determined as 28.4% on human B1R receptor and 96.2% on B1R receptor of the rat.

For the molecule `COc1cc(C)c(S(=O)(=O)N2CCCCC2COCC(=O)NCc2ccccc2N2CCN(C)CC2)c(C)c1` (stereo not shown) [Example 432, 2-((1-(4-methoxy-2,6-dimethylphenylsulfonyl)piperidin-2-yl)methoxy)-N-(2-(4-methylpiperazin-1-yl)benzyl)acetamide], the results for the inhibition at 10 µM on human B1R receptor and at B1R receptor of the rat were 94% and 100%, respectively.

Turning to `COc1cc(C)c(S(=O)(=O)N2CCCCC2COCC(=O)NCc2cccc(N3CCN(C)CC3)c2)c(C)c1` (stereo not shown) [Example 433, 2-((1-(4-methoxy-2,6-dimethylphenylsulfonyl)piperidin-2-yl)methoxy)-N-(3-(4-methylpiperazin-1-yl)benzyl)acetamide], the inhibition at 10 µM at human B1R receptor was determined as 103%; at B1R receptor of the rat, 100%.

(Values after patent US8435978B2, “Substituted sulfonamide compounds” (Gruenenthal GmbH, priority 2006, dated 2013).)
